Each structure is given as a SMILES string.

Test [1] addresses T1, protein kinases (Homo sapiens, UniProt P36888).
T1 construct: purchased Discovery X company (USA), KINOMEscan screening platform
T1 sequence (P36888 27-993): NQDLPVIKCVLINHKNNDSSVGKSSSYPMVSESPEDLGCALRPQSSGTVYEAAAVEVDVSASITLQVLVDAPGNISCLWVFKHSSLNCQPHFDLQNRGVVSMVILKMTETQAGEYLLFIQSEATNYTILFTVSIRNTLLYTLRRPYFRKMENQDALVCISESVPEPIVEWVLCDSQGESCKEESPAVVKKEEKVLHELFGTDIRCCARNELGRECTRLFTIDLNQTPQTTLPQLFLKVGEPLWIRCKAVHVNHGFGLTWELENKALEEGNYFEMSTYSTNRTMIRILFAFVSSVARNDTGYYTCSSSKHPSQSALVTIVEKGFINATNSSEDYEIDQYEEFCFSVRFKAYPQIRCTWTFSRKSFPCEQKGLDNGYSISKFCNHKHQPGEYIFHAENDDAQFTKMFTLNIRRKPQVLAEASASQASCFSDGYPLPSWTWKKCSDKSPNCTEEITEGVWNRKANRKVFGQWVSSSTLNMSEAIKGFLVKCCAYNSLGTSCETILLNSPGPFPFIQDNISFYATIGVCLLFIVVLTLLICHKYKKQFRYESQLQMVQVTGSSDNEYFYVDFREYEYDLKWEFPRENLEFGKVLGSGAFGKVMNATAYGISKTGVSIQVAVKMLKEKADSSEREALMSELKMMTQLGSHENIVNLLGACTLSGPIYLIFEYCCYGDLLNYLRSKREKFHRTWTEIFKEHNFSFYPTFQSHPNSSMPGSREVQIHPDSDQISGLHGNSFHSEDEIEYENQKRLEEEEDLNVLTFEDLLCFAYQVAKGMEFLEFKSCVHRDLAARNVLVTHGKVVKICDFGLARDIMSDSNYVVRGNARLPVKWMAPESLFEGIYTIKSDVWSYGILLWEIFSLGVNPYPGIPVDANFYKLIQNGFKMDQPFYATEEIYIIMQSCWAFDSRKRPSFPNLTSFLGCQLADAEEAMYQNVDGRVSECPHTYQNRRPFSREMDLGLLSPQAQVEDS
Nature of the test: KINOMEscan in vitro binding to 468 labeled protein kinases. Particulars: FLT3, read-out: Test compound/solvent control (%). Summed up: (§1)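 Duplicate in vitro binding reactions at 1 nM, 10 nM and 1000 nM compound against a panel of 468 labelled protein kinases (KINOMEscan). Binding expressed relative to solvent control as a percentage, stronger affinity giving a lower value.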

The target in test [2] is T2, protein kinases (Homo sapiens, UniProt Q12866).
T2 construct: purchased Discovery X company (USA), KINOMEscan screening platform
T2 sequence (Q12866 21-999): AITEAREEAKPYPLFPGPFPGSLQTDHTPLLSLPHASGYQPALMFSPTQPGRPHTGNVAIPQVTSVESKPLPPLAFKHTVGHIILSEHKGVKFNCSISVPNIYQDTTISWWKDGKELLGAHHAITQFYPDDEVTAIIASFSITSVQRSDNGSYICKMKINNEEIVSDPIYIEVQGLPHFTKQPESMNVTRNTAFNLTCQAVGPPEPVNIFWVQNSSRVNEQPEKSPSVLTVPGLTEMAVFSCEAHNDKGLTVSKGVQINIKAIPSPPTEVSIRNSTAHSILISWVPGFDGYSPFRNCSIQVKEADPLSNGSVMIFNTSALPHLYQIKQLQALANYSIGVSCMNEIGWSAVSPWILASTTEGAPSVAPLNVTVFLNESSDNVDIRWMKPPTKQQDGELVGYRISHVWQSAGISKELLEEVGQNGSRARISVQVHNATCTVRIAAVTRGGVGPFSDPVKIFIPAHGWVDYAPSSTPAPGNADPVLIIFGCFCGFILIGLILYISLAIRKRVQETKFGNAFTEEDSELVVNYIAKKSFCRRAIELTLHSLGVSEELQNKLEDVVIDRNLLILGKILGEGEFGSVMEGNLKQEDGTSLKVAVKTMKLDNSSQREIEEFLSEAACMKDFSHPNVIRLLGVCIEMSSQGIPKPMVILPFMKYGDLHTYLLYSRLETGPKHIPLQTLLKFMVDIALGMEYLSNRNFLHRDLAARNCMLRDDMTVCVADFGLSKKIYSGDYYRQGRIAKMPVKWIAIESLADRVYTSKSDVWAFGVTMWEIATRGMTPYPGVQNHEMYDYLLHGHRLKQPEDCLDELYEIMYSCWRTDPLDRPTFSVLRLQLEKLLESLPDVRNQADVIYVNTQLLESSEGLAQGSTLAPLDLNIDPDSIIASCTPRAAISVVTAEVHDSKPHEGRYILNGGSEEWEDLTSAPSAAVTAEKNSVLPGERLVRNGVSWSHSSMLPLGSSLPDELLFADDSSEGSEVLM
The description is as above. The conditions noted are these: MERTK, read-out: Test compound/solvent control (%). Summed up: as §1

For `COCCOc1cc2nccc(Oc3ccc(NC(=O)Nc4cc(C(C)(C)C)n[nH]4)c(Cl)c3)c2cc1NC(C)=O` [Compound 66, N-[4-{4-[3-(5-tert-butyl-2H-pyrazol-3-yl)-ureido]-3-chloro-phenoxy}-7-(2-methoxy-ethoxy)-quinolin-6-yl]-acetamide], the remaining binding at 0.001 µM at protein kinases [1] (1 nM) worked out at 92%; at protein kinases [2] (1 nM), 57%. Moreover, the remaining binding at 0.01 µM on protein kinases [1] (10 nM) came to 20%; at protein kinases [2] (10 nM), 4.1%. In addition, the remaining binding at 1 µM on protein kinases [1] (1000 nM) amounted to 1.9%; on protein kinases [2] (1000 nM), 0.65%.

These data come from patent US10800741B2 (ANCUREALL PHARMACEUTICAL (SHANGHAI) CO., LTD., priority 2017, dated 2020).
